Experimental data: patent publication US20230002344A1, “NOVEL BENZOTHIOPHENE DERIVATIVES AND USE THEREOF FOR STIMULATING MITOCHONDRIAL TURNOVER” (NIBN, The National Institute For Biotechnology In The Negev …, priority 2019, published 2023)
“Also recorded” adds a separate entry of the source.

Tests used:
INS1 cells [1] = test: Mitochondrial membrane potential (TMRE/MTG); type: cell-based; conditions: 25 uM, 24 h
Method: INS1 cells were treated for 24 h with SPB08007 (25 uM) or DMSO (0.1%). Mitochondrial membrane potential was analyzed cell by cell through TMRE staining corrected by Mitotracker Green (MTG). Cells were imaged using a 100× Plan Neofluar objective and the Airyscan module of a Zeiss LSM880 confocal microscope. […] Each experiment was repeated 2 times, 59-85 cells of each group were analyzed in each experiment for TMRE/MTG, and 48 fields were analyzed in each experiment for Mitosox analysis. *p<0.05 vs. DMSO; ***p<0.05 vs. DMSO and SPB08007.
To assess mitochondrial membrane potential, INS1 cells were plated in each compartment of a quadrant imaging dish (Greiner Bio-One International) at a density of 1.2*10^5 cells/well. After 48 h, cells were incubated RPMI-1640 containing 25 μM of compound A or vehicle (0.1% DMSO). After 18h, the cells were stained in RPMI-1640 media containing 200 nM MitoTracker Green (MTG) and 15 nM of Tetramethylrhodamine, ethyl ester (TMRE); cells were then washed three times and finally kept in RPMI-1640 containing TMRE but lacking MTG. Live-Imaging was performed using a 63× Plan Neofluar objective and the Airyscan module of a Zeiss LSM880 confocal microscope. The mitochondrial membrane potential was analyzed by TMRE fluorescence corrected by MTG, using the Fiji/ImageJ software.

INS1 cells [2] = test: Western blot for mitochondrial proteins; type: cell-based; conditions: 24 h
Method: INS1 cells expressing Mitotimer under EF-1 alpha promoter were treated for 18 hours with rapamycin (100 nM). […] FIGS. 2B and 2C show a Western blot for mitochondrial proteins upon treatment with rapamycin. Note that rapamycin increased mitochondrial mass.
Cell treatments and mitochondrial extraction. INS1 cells were treated with SBP08007 or MWP00839 25 uM for 24 h. Mitochondrial and cytosolic fractions from INS1 cells were performed by using the Mitochondria Isolation Kit for Cultured Cells (Pierce). INS1 cells were lysed in a hypotonic buffer (10 mM NaCl, 1.5 mM MgCl2, and 10 mM Tris.HCl, pH 7.5), and mitochondria were extracted in a Dounce homogenizer in mitochondrial buffer (1 mM EDTA, 210 mM mannitol, 70 mM sucrose, and 5 mM Tris.HCl, 7.5), followed by centrifugation at 1,300×g for 10 min at 4° C. The supernatant was further centrifuged at 17,000×g for 15 min at 4° C. to pellet the mitochondria. The crude mitochondrial fraction was resuspended for washing and centrifuged at 17,000×g for 15 min at 4° C. The pellets were collected as the mitochondrial fraction.
Western blot. Cell lysates were diluted in Laemmli sample buffer (100 mM Tris-HCl, 2% SDS, 10% glycerol, 0.1% bromophenol blue) containing 5% beta-mercaptoethanol. After heating at 95° C. for 5 min, proteins were separated by SDS-PAGE previously added of Stain Free reagent (BioRad), and transferred onto PVDF membranes. Membranes were blocked with 5% non-fat milk and detection of individual proteins was carried out by blotting with specific primary antibodies against ubiquitin (Calbiochem 1:1,000). Chemiluminescence detection using a secondary peroxidase-linked anti-rabbit (Calbiochem; 1:10,000) and a detection system from Pierce KLP (Rockford, Ill., USA) was performed. Stain free total protein labeling was imaged in Image Lab 6.0 Software (BioRad), which was used for quantification of the mitochondria and normalization to total protein staining.

CC(=O)N/C(=C\c1sc2ccccc2c1C)C(=O)O [SPB08007]
mitochondrial membrane potential ψm (TMRE/MTG) (INS1 cells [1]): not reduced; also recorded: slightly, but significantly, raised | CI-NDFUB8 levels (INS1 cells [2]; 25 uM): unaffected | SDHB (Complex II) protein level increase (INS1 cells [2]; 25 uM, relative to DMSO): 2 fold | UQCRC2 (Complex III) protein level increase (INS1 cells [2]; 25 uM, relative to DMSO): 1.5 fold | overall mitochondrial protein (INS1 cells [2]): reduces
